Laboratory results taken from US20200069775A1, “BRAIN OSTEOCALCIN RECEPTOR AND COGNITIVE DISORDERS” (The Trustees of Columbia University in the City of New York, priority 2017, published 2020).

Tests used:
Assay type in all cases: in vivo, mouse
WT 2-month old mice = experiment: ICV delivery in WT adult mice, D/LT and EPMT; conditions: ICV 3 or 10 ng/hour, one month
Experimental: Each mouse was allowed to explore the apparatus for 5 min. Global activity was assessed by measuring the number of entries […] (David et al, 2009, Neuron 62:479-493). Anxiety was assessed by comparing the time spent in the open arms.
The test was performed in a quiet, darkened room. Mice were individually housed in cages containing a handful of bedding from their home cage and acclimated to the room at least 1 h before the test. Naive mice were placed individually in the testing chamber in the dark compartment. The test was 5 min in duration, and time spent and number of entries in light compartments were recorded a highly trained observer, blind to the genotype of the mice.
To determine if osteocalcin is sufficient to improve cognitive function in adult mice, WT 2-month old mice were implanted with ICV pumps delivering vehicle (PBS), or 3, 10, or 30 ng/hr recombinant uncarboxylated full-length mouse osteocalcin for a period of one month. After one month of infusion, animals were subjected to behavioral testing.

[1] = tested on: CREB phosphorylation in the hippocampus; experiment: Stereotactic injection into hippocampus, pCREB and PKA immunofluorescence; conditions: 16 h post injection
Text: The resulting effects on animal behavior of direct recombinant uncarboxylated osteocalcin delivery raise the question of the molecular mechanism of action of osteocalcin in the brain. Given that osteocalcin acts through a G-protein coupled receptor pathway in other tissues, e.g., pancreas and testis, the phosphorylated CREB levels in the hippocampi of Ocn−/− and WT animals was checked. […] The hippocampus is essential for optimal spatial learning and memory in rodents. It was then asked whether the acute stereotactic injection of 10 ng of recombinant uncarboxylated osteocalcin directly into the hippocampus of WT animals would affect pCREB levels.

3 month-old WT mice = experiment: Alendronate treatment with or without osteocalcin, MWMT and NOR; conditions: peripheral delivery of osteocalcin, 60 ng/hr by osmotic pump
Experimental: For plasma injection experiments, 100 μl of plasma were injected 8 times during 24 days, via tail vein. Each group described is represented individually in each panel. For osteocalcin delivery in WT mice, pumps (Alzet micro-osmotic pump, Model 1002) delivering osteocalcin (30 ng/hr for 12 month-old and 90 ng/hr for 16 month-old mice), or vehicle, were surgically installed subcutaneously in the back of mice. […] Control mice receiving vehicle or mice receiving alendronate were implanted with osmotic pumps delivering vehicle only.
Morris water maze test: Animals are transported to the testing room in their home cages, and left undisturbed for at least 30 minutes prior to the first trial. The maze is comprised of a large swimming pool (150cm diameter) filled with water (23° C.) made opaque with non-toxic white paint. The pool is located in a brightly lit room filled with visual cues, including geometric figures on the walls of the maze demarking the four fixed starting positions of the trials, at (12:00, 3:00, 6:00 and 9:00). A 15 cm round platform is hidden 1 cm beneath the surface of the water at a fixed position. Each daily trial block consisted of four swimming trials, with each mouse starting from the same randomly chosen starting position. The starting position is varied between days. On day 1, mice that fail to find the platform within 2 min are guided to the platform. They must remain on the platform for 15 s before they are returned to their home cage. Mice are not guided to the platform after day 1, and the time it takes them to reach the platform over repeated trials ([…] for the next 10 days) is recorded as a measure of spatial learning.
Novel object recognition test (NOR): The NOR paradigm assesses the rodent's ability to recognize a novel object in the environment. The NOR task will be conducted, as previously described7, in an opaque plastic box using 2 different objects: (1) a clear plastic funnel (diameter 8.5 cm, maximal height 8.5 cm) and (2) a black plastic box (9.5 cm^3). These objects elicit equal levels of exploration as determined in pilot experiments (Denny, C. A., et al., 2012, Hippocampus 22:1188-1201; Oury, F., et al., 2013, Cell 155:228-241). The NOR paradigm consists of 3 exposures over the course of 3 days. On day 1, the habituation phase, mice are given 5 minutes to explore the empty arena, without any objects. On day 2, the familiarization phase, mice are given 10 minutes to explore 2 identical objects, placed at opposite ends of the box. On day 3, the test phase, mice are given 15 minutes to explore 2 objects, one novel object and a copy of the object from the familiarization phase. The object that serves as the novel object (either the funnel or the box) as well as the left/right starting position of the objects are counterbalanced within each group. Mice are placed in the center of the arena at the start of each exposure. […] Preference for the novel object is assessed based on the fraction of time that a mouse spends exploring the novel object compared to the familiar object. Exploration is scored from video recordings of each exposure and recorded using the Stopwatch program. […]
Streptavidin were added for 30 minutes at room temperature followed by PBS washes. […] For hormonal measurement; circulating levels of the carboxylated, undercarboxylated or uncarboxylated forms of osteocalcin were measured by ELISA. CTX content in serum (ng/ml) were measured with specific ELISAs (RatLaps™ (CTX-I) EIA (Immunodiagnosticsystems).

In the case of “osteocalcin: Recombinant osteocalcin bacterially produced, cleaved from the GST subunit; completely undercarboxylated at all three sites; full-length mouse osteocalcin (YLGASVPSPDPLEPTREQCELNPACDELSDQYGLKTAYKRIYGITI)”, the “anxiety-like behavior (D/LT and EPMT)” value (WT 2-month old mice) is reported as “decrease in anxiety-like behavior”, the “exploration of the lit compartment and open arms (D/LT, EPM)” value (WT 2-month old mice) is reported as “increase in the exploration of the lit compartment and open arms” and the pCREB staining ([1]; 10 ng into hippocampus of WT animals, vs PBS hemisphere) is reported as “pCREB staining was increased”. For the same substance, the PKA staining ([1]; 10 ng into hippocampus, injected hemisphere) was “widespread and dramatic increase in PKA staining” and the “behavioral abnormalities (MWMT, NOR) of alendronate-treated mice” value (3 month-old WT mice) was “corrected”.
